Experiments:
[1] = molecular target: ER (endogenous, MCF7 cells) (Homo sapiens (Human), UniProt P03372); assay: ER transcription assay (MCF7 cells), ERE-luciferase reporter; format: cell-based; settings: inflection point of the inhibition of transcription in MCF7 cells; 0.1 nM estradiol, 24 hours; read-out: MCF7 IC50
From the text: ER Transcription Assay (MCF7 Cells)
The ER transcription assay is a reporter assay that is based on the ability of ER to induce transcription from a luciferase reporter gene containing estrogen response elements (EREs) in the promoter/enhancer region. When the reporter gene is transfected in MCF7 cells (containing endogenous ER), transcription is reflected by the level of luciferase expression.
A day before transfection, cells are split into a T75 flask at a cell density of 300,000 cells/mL (10 mL total) and allowed to attach overnight in a humidified CO2 incubator at 37° C.
Approximately 20 ug DNA is mixed in OptiMEM (Invitrogen) to a total volume of 650 μL. Following incubation, the OptiMEM-DNA mixture is added to the OptiMEM-Lipofectin mix and incubated for 15 minutes at 37° C. The DNA-Lipofectin mixture is then added directly to the T75 flask and the flask is returned to the incubator.
Normally, DMSO (used as a vehicle) is included to achieve a final concentration of 0.1% when added to the cells. Transfected cells are trypsinized, resuspended in DMEM/F12/10% charcoal-stripped serum and added to the 96-well plate at 25,000 cells/well in 90 μL of media. The plate is then returned to the incubator for 24 hours.
After incubation with compounds for 24 hours, Firefly and Renilla luciferase activities are measured to determine ER transcriptional activity. Media is removed from 96-well plates by decanting and blotting on paper towels.
One second total read time after a one second delay.
One second total read time after one second delay. If Firefly luciferase signal is high, Renilla assay must be done an hour after the Firefly assay due to incomplete squelching of Firefly signal.
(§1) The column titled MCF7 IC50 reports the inflection point of the inhibition of transcription in MCF7 cells as described above. Percentage ERα remaining reports the remaining ERα protein measured at 10 μM concentration of the ligand as described above. The column ERα IC50 reports the inflection point of the degradation in response to the ligand concentration.

ERα = ERα (Homo sapiens (Human), UniProt P03372); assay: ERα degradation (MCF7 cells), in-cell Western; format: cell-based; settings: MCF7 cells; for % ERα remaining: remaining ERα protein at 10 μM ligand, relative to DMSO control; for IC50: inflection point of the degradation in response to ligand concentration
Description: ERα Degradation (MCF7 Cells)
as §1

ER (endogenous, MCF7 cells), sequence (P03372 whole entry): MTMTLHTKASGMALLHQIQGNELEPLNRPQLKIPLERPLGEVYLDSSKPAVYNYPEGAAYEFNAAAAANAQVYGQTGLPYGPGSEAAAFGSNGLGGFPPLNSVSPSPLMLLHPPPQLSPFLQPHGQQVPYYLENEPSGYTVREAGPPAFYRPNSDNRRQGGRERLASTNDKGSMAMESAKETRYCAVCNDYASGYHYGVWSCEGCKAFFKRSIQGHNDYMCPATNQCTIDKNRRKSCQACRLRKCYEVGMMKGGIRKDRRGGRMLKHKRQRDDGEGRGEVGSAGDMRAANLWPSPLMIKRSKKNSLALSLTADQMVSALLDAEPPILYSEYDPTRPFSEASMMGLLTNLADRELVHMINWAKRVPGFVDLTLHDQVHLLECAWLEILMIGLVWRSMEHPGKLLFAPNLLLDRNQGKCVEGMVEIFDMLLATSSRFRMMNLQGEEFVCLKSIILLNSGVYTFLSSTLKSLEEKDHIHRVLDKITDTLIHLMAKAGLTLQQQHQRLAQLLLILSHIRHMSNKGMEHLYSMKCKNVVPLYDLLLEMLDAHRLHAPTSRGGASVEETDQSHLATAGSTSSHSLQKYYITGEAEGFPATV
ERα, sequence (P03372 whole entry): as above

SMILES: N#CCc1ccccc1-c1sc2cc(O)ccc2c1Oc1ccc(/C=C/C(=O)O)cc1 [Example 94, (E)-3-(4-((2-(2-(cyanomethyl)phenyl)-6-hydroxybenzo[b]thiophen-3-yl)oxy)phenyl)acrylic acid]
- IC50 [1]: 0.086 µM
- % ERα remaining (ERα): 20%

SMILES: Cn1nnc(Cc2ccccc2-c2sc3cc(O)ccc3c2Oc2ccc(/C=C/C(=O)O)cc2)n1 [Example 96, (E)-3-(4-((6-hydroxy-2-(2-((2-methyl-2H-tetrazol-5-yl)methyl)phenyl)benzo [b]thiophen-3-yl)oxy)phenyl)acrylic acid]
- IC50 [1]: 0.212 µM
- IC50 (ERα): 0.0017 µM
- % ERα remaining (ERα): 14%

SMILES: O=C(O)/C=C/c1ccc(Oc2c(-c3ccccc3CN3CCC3)sc3cc(O)ccc23)cc1 [Example 97, (E)-3-(4-((2-(2-(azetidin-1-ylmethyl)phenyl)-6-hydroxybenzo[b]thiophen-3-yl)oxy)phenyl)acrylic acid]
- IC50 [1]: 0.292 µM
- IC50 (ERα): 0.025 µM
- % ERα remaining (ERα): 18%

SMILES: CC(C)c1cccc(-c2sc3cc(O)ccc3c2Oc2ccc(/C=C/C(=O)O)cc2)c1 [Example 98, (E)-3-(4-((6-hydroxy-2-(3-isopropylphenyl)benzo[b]thiophen-3-yl)oxy)phenyl)acrylic acid]
- IC50 [1]: 0.382 µM
- IC50 (ERα): 0.0066 µM
- % ERα remaining (ERα): 19%

SMILES: O=C(O)/C=C/c1ccc(Oc2c(-c3ccc(F)cc3CN3CCCC3=O)sc3cc(O)ccc23)cc1 [Example 99, (E)-3-(4-((2-(4-fluoro-2-((2-oxopyrrolidin-1-yl)methyl)phenyl)-6-hydroxybenzo[b]thiophen-3-yl)oxy)phenyl)acrylic acid]
- IC50 [1]: 0.544 µM
- % ERα remaining (ERα): 14%

SMILES: Cc1ncccc1-c1sc2cc(O)ccc2c1Oc1ccc(/C=C/C(=O)O)cc1 [Example 100, (E)-3-(4-((6-hydroxy-2-(2-methylpyridin-3-yl)benzo[b]thiophen-3-yl)oxy)phenyl)acrylic acid]
- IC50 [1]: 0.669 µM
- IC50 (ERα): 0.0054 µM
- % ERα remaining (ERα): 12%

SMILES: CC(C)c1ccccc1-c1sc2c(F)c(O)ccc2c1Oc1ccc(/C=C/C(=O)O)cc1 [Example 101, (E)-3-(4-((7-fluoro-6-hydroxy-2-(2-isopropylphenyl)benzo [b]thiophen-3-yl)oxy)phenyl)acrylic acid]
- IC50 [1]: 0.0042 µM
- IC50 (ERα): 0.0002 µM
- % ERα remaining (ERα): 18%

SMILES: CCCc1nnc(/C=C/c2ccc(Oc3c(-c4ccccc4C(C)C)sc4cc(O)ccc34)cc2)o1 [Example 103, (E)-2-(2-isopropylphenyl)-3-(4-(2-(5-propyl-1,3,4-oxadiazol-2-yl)vinyl)phenoxy)benzo [b]thiophen-6-ol]
- IC50 [1]: 0.012 µM
- IC50 (ERα): 0.0033 µM
- % ERα remaining (ERα): 31%

SMILES: CC(C)c1ccccc1-c1sc2cc(O)ccc2c1Oc1ccc(/C=C/c2nnc(C3CC3)o2)cc1 [Example 104, (E)-3-(4-(2-(5-cyclopropyl-1,3,4-oxadiazol-2-yl)vinyl)phenoxy)-2-(2-isopropylphenyl)benzo [b]thiophen-6-ol]
- IC50 [1]: 0.032 µM
- % ERα remaining (ERα): 29%

SMILES: Cc1nnc(/C=C/c2ccc(Oc3c(-c4ccccc4C(C)C)sc4cc(O)ccc34)cc2)[nH]1 [Example 105, (E)-2-(2-isopropylphenyl)-3-(4-(2-(5-methyl-4H-1,2,4-triazol-3-yl)vinyl)phenoxy)benzo [b]thiophen-6-ol]
- IC50 [1]: 0.014 µM
- IC50 (ERα): 0.0011 µM
- % ERα remaining (ERα): 25%

SMILES: CCCc1nnc(/C=C/c2ccc(Oc3c(-c4ccccc4C(C)C)sc4cc(O)ccc34)cc2)[nH]1 [Example 107, (E)-2-(2-isopropylphenyl)-3-(4-(2-(5-propyl-4H-1,2,4-triazol-3-yl)vinyl)phenoxy)benzo [b]thiophen-6-ol]
- IC50 [1]: 0.066 µM
- IC50 (ERα): 0.004 µM
- % ERα remaining (ERα): 29%

SMILES: O=C(O)/C=C/c1ccc(Oc2c(-c3ccccc3CC(F)(F)F)sc3cc(O)ccc23)cc1 [Example 109, (E)-3-(4-((6-hydroxy-2-(2-(2,2,2-trifluoroethyl)phenyl)benzo[b]thiophen-3-yl)oxy)phenyl)acrylic acid]
- IC50 [1]: 0.012 µM
- IC50 (ERα): 0.0002 µM
- % ERα remaining (ERα): 16%

SMILES: CC(F)c1ccccc1-c1sc2cc(O)ccc2c1Oc1ccc(/C=C/C(=O)O)cc1 (centres unmarked) [Example 111, (E)-3-(4-((2-(2-(1-fluoroethyl)phenyl)-6-hydroxybenzo[b]thiophen-3-yl)oxy)phenyl)acrylic acid]
- IC50 [1]: 0.025 µM
- IC50 (ERα): 0.0003 µM
- % ERα remaining (ERα): 17%

SMILES: CC/C(=C\c1ccc(Oc2c(-c3ccccc3C(C)C)sc3cc(O)ccc23)cc1)C(=O)O [Example 113, (E)-2-(4-((6-hydroxy-2-(2-isopropylphenyl)benzo [b]thiophen-3-yl)oxy)benzylidene) butanoic acid]
- IC50 [1]: 0.062 µM
- IC50 (ERα): 0.0022 µM
- % ERα remaining (ERα): 24%

SMILES: CC/C(=C\c1ccc(Oc2c(-c3ccc(O)cc3)sc3cc(O)ccc23)cc1)C(=O)O [Example 114, (E)-2-(4-((6-hydroxy-2-(4-hydroxyphenyl)benzo [b]thiophen-3-yl)oxy)benzylidene) butanoic acid]
- IC50 [1]: 0.216 µM
- IC50 (ERα): 0.0064 µM
- % ERα remaining (ERα): 35%

SMILES: CC(C)c1ncoc1-c1sc2cc(O)ccc2c1Oc1ccc(/C=C/C(=O)O)cc1 [Example 115, (E)-3-(4-((6-hydroxy-2-(4-isopropyloxazol-5-yl)benzo[b]thiophen-3-yl)oxy)phenyl)acrylic acid]
- IC50 [1]: 0.267 µM
- IC50 (ERα): 0.0053 µM
- % ERα remaining (ERα): 15%

SMILES: C[C@@H](O)c1ccccc1-c1sc2cc(O)ccc2c1Oc1ccc(/C=C/C(=O)O)cc1 [Example 116, (R,E)-3-(4-((6-hydroxy-2-(2-(1-hydroxyethyl)phenyl)benzo[b]thiophen-3-yl)oxy)phenyl)acrylic acid]
- IC50 [1]: 0.306 µM
- IC50 (ERα): 0.012 µM
- % ERα remaining (ERα): 24%

SMILES: CC(C)c1ccccc1-c1sc2cc(O)ccc2c1Oc1ccc(/C=C/C(=O)O)nc1 [Example 117, (E)-3-(5-((6-hydroxy-2-(2-isopropylphenyl)benzo [b]thiophen-3-yl)oxy)pyridin-2-yl)acrylic acid]
- IC50 [1]: 0.054 µM
- % ERα remaining (ERα): 16%

SMILES: CC(C)c1ccccc1-c1sc2cc(O)ccc2c1Nc1ccc(/C=C/C(=O)O)cc1 [Example 118, (E)-3-(4-((6-hydroxy-2-(2-isopropylphenyl)benzo [b]thiophen-3-yl)amino)phenyl)acrylic acid]
- IC50 [1]: 0.068 µM
- IC50 (ERα): 0.0028 µM
- % ERα remaining (ERα): 14%

SMILES: CC(C)c1ccccc1-c1sc2cc(O)ccc2c1N(C)c1ccc(/C=C/C(=O)O)cc1 [Example 119, (E)-3-(4-((6-hydroxy-2-(2-isopropylphenyl)benzo [b]thiophen-3-yl)(methyl)amino)phenyl) acrylic acid]
- IC50 [1]: 0.109 µM
- IC50 (ERα): 0.0062 µM
- % ERα remaining (ERα): 19%

SMILES: CC(=O)/C=C/c1ccc(Oc2c(-c3ccc(F)cc3C(F)(F)F)sc3cc(O)ccc23)cc1 [Example 120, (E)-4-(4-((2-(4-fluoro-2-(trifluoromethyl)phenyl)-6-hydroxybenzo[b]thiophen-3-yl)oxy)phenyl)but-3-en-2-one]
- IC50 [1]: 0.0051 µM
- % ERα remaining (ERα): 70%

SMILES: CC(=O)/C=C/c1ccc(Oc2c(-c3ccc(C(F)(F)F)cc3)sc3cc(O)ccc23)cc1 [Example 121, (E)-4-(4-((6-hydroxy-2-(4-(trifluoromethyl)phenyl)benzo[b]thiophen-3-yl)oxy)phenyl)but-3-en-2-one]
- IC50 [1]: 0.214 µM
- % ERα remaining (ERα): 56%

SMILES: CC(F)(F)c1ccccc1-c1sc2cc(O)ccc2c1Oc1ccc(/C=C/C(=O)O)cc1 [Example 122, (E)-3-(4-((2-(2-(1,1-difluoroethyl)phenyl)-6-hydroxybenzo[b]thiophen-3-yl)oxy)phenyl)acrylic acid]
- IC50 [1]: 0.011 µM
- IC50 (ERα): 0.0002 µM
- % ERα remaining (ERα): 15%

SMILES: O=C(O)/C=C/c1ccc(Oc2c(-c3ccccc3C3COC3)sc3cc(O)ccc23)cc1 [Example 123, (E)-3-(4-((6-hydroxy-2-(2-(oxetan-3-yl)phenyl)benzo[b]thiophen-3-yl)oxy)phenyl)acrylic acid]
- IC50 [1]: 0.083 µM
- IC50 (ERα): 0.0011 µM
- % ERα remaining (ERα): 15%

SMILES: Cc1cccc(C(C)C)c1-c1sc2cc(O)ccc2c1Oc1ccc(/C=C/C(=O)O)cc1 [Example 124, (E)-3-(4-((6-hydroxy-2-(2-isopropyl-6-methylphenyl)benzo[b]thiophen-3-yl)oxy)phenyl)acrylic acid]
- IC50 [1]: 0.114 µM
- IC50 (ERα): 0.0014 µM
- % ERα remaining (ERα): 10%

SMILES: CN(C)c1ccccc1-c1sc2cc(O)ccc2c1Oc1ccc(/C=C/C(=O)O)cc1 [Example 125, (E)-3-(4-((2-(2-(dimethylamino)phenyl)-6-hydroxybenzo[b]thiophen-3-yl)oxy)phenyl)acrylic acid]
- IC50 [1]: 0.124 µM
- % ERα remaining (ERα): 11%

Reference: patent publication US10058534B2, “Benzothiophene derivatives and compositions thereof as selective estrogen receptor degraders” (NOVARTIS AG, priority 2013, dated 2018)
